In ChEMBL document CHEMBL4665893, “Scalable Synthesis, In Vitro cccDNA Reduction, and In Vivo Antihepatitis B Virus Activity of a Phosphonomethoxydeoxythreosyl Adenine Prodrug” (J Med Chem, 2020):

Key:
[1] = Toxicity in C57BL/6 male mouse assessed as effect on clinical chemistry level at 60 mg/kg, po for 14 days; assay type: organism-based; settings: in vivo, 336 h, time 14 day
Hepatitis B virus [2] = experiment: Antiviral activity against adenovirus AdH294-WT harboring wild-type HBV genotype D accession #V01460 infected in human HepG2 cells assessed as reduction in viral replicative intermediate DNA level at 13 nM incubated for 5 days by Southern blot analysis (reference value: 100%); assay type: functional; parameters: scale not given: the % may be the effect or the level left; settings: time 5 day
Hepatitis B virus [3] = experiment: Antiviral activity against adenovirus AdH294-WT harboring wild-type HBV genotype D accession #V01460 infected in human HepG2 cells assessed as reduction in viral replicative intermediate DNA level at 3300 nM incubated for 5 days by Southern blot analysis (reference value: 100%); assay type: functional; parameters: scale not given: the % may be the effect or the level left; settings: time 5 day
Hepatitis B virus [4] = experiment: Antiviral activity against adenovirus AdH294-WT harboring wild-type HBV genotype D accession #V01460 infected in human HepG2 cells assessed as reduction in viral replicative intermediate DNA level at 10000 nM incubated for 5 days by Southern blot analysis (reference value: 100%); assay type: functional; parameters: scale not given: the % may be the effect or the level left; settings: time 5 day
[5] = Toxicity in C57BL/6 male mouse assessed as increase in LDL-C level at 60 mg/kg, po for 14 days; assay type: organism-based; settings: in vivo, 336 h, time 14 day
[6] = Toxicity in C57BL/6 male mouse assessed as reduction in hematocrit level at 60 mg/kg, po for 14 days by hematology analysis; assay type: organism-based; settings: in vivo, 336 h, time 14 day
[7] = Toxicity in C57BL/6 male mouse assessed as reduction in erythrocytes level at 60 mg/kg, po for 14 days by hematology analysis; assay type: organism-based; settings: in vivo, 336 h, time 14 day
[8] = Toxicity in C57BL/6 male mouse assessed as reduction in hemoglobin level at 60 mg/kg, po for 14 days by hematology analysis; assay type: organism-based; settings: in vivo, 336 h, time 14 day
[9] = Genotoxicity in Salmonella typhimurium at 1 uM by Ames test; assay type: toxicity; settings: salmonella enterica subsp. enterica serovar typhimurium
[10] = Toxicity in C57BL/6 male mouse assessed as effect on organ weight level at 60 mg/kg, po for 14 days; assay type: organism-based; settings: in vivo, 336 h, time 14 day
Hepatitis B virus [11] = experiment: Antiviral activity against adenovirus AdH294-WT harboring wild-type HBV genotype D accession #V01460 infected in human HepG2 cells assessed as reduction in viral replicative intermediate DNA level at 370 nM incubated for 5 days by Southern blot analysis (reference value: 100%); assay type: functional; parameters: scale not given: the % may be the effect or the level left; settings: time 5 day
[12] = Toxicity in C57BL/6 female mouse assessed as reduction in hematocrit level at 60 mg/kg, po for 14 days by hematology analysis; assay type: organism-based; settings: in vivo, 336 h, time 14 day
Hepatitis B virus [13] = experiment: Antiviral activity against ETV-resistant and adenovirus AdH294-7LR harboring wild-type HBV infected in human HepG2 cells assessed as viral replicative intermediate DNA level at 370 nM incubated for 5 days by Southern blot analysis (reference value: 100%); assay type: functional; settings: time 5 day
[14] = Genotoxicity in Salmonella typhimurium TA98 assessed as increase in number of spontaneous revertants colonies by Ames test; assay type: toxicity; settings: salmonella enterica subsp. enterica serovar typhimurium, 1 µM
[15] = Toxicity in C57BL/6 female mouse assessed as reduction in mean corpuscular volume level at 60 mg/kg, po for 14 days by hematology analysis; assay type: organism-based; settings: in vivo, 336 h, time 14 day
[16] = Toxicity in C57BL/6 male mouse assessed as reduction in mean corpuscular volume level at 60 mg/kg, po for 14 days by hematology analysis; assay type: organism-based; settings: in vivo, 336 h, time 14 day
[17] = Selectivity index, […] against HBV infected in human HepDE19 cells to CC50 for toxicity in human HepDE19 cells; assay type: cell-based; settings: read-out: Ratio CC50/IC50
Hepatitis B virus [18] = experiment: Antiviral activity against adenovirus AdH294-WT harboring wild-type HBV genotype D accession #V01460 infected in human HepG2 cells assessed as reduction in viral replicative intermediate DNA level at 4 nM incubated for 5 days by Southern blot analysis (reference value: 100%); assay type: functional; parameters: scale not given: the % may be the effect or the level left; settings: time 5 day
[19] = Toxicity in C57BL/6 mouse assessed as induction of functional deficit at 60 mg/kg, po for 14 days; assay type: organism-based; settings: in vivo, 336 h, time 14 day
Hepatitis B virus [20] = experiment: Antiviral activity against ETV-resistant and adenovirus AdH294-7LR harboring wild-type HBV infected in human HepG2 cells assessed as viral replicative intermediate DNA level at 4 nM incubated for 5 days by Southern blot analysis (reference value: 100%); assay type: functional; settings: time 5 day
Hepatitis B virus [21] = experiment: Antiviral activity against adenovirus AdH294-WT harboring wild-type HBV genotype D accession #V01460 infected in human HepG2 cells assessed as reduction in viral replicative intermediate DNA level at 40 nM incubated for 5 days by Southern blot analysis (reference value: 100%); assay type: functional; parameters: scale not given: the % may be the effect or the level left; settings: time 5 day
[22] = Toxicity in human HepDE19 cells assessed as reduction in beta-actin level incubated for 9 days by qPCR analysis; assay type: cell-based; settings: time 9 day
Hepatitis B virus [23] = experiment: Antiviral activity against ETV-resistant and adenovirus AdH294-7LR harboring wild-type HBV infected in human HepG2 cells assessed as viral replicative intermediate DNA level at 120 nM incubated for 5 days by Southern blot analysis (reference value: 100%); assay type: functional; settings: time 5 day
[24] = Toxicity in C57BL/6 female mouse assessed as increase in neutrophils level at 60 mg/kg, po for 14 days by hematology analysis; assay type: organism-based; settings: in vivo, 336 h, time 14 day
[25] = Plasma concentration in C57BL/6 mouse at 6 mg/kg, po administered as single dose after 0.25 to 24 hrs by LC/MS/MS analysis; assay type: ADME, organism-based; settings: in vivo, time 0.25-24 hrs
[26] = Genotoxicity in Salmonella typhimurium TA1535 assessed as increase in number of spontaneous revertants colonies by Ames test; assay type: toxicity; settings: salmonella enterica subsp. enterica serovar typhimurium, 1 µM

SMILES: CC(C)CCOC(=O)C[C@H](NP(=O)(CO[C@H]1CO[C@@H](n2cnc3c(N)ncnc32)C1)Oc1ccccc1)C(=O)OCCC(C)C (mixture of isomers)
- Activity [1]: Non-Toxic
- Activity (Hepatitis B virus [2]): 22.4%
- Activity (Hepatitis B virus [3]): 0%
- Activity (Hepatitis B virus [4]): 0%
- Activity [5]: Toxic
- Activity [6]: Toxic
- Activity [7]: Toxic
- Activity [8]: Toxic
- Activity [9]: Non-Toxic
- Activity [10]: Non-Toxic
- Activity (Hepatitis B virus [11]): 1.8%
- Activity [12]: Non-Toxic
- Activity (Hepatitis B virus [13]): 20.2%
- Activity [14]: Non-Toxic
- Activity [15]: Non-Toxic
- Activity [16]: Toxic
- selectivity ratio [17]: 37
- Activity (Hepatitis B virus [18]): 39.1%
- Activity [19]: Non-Toxic
- Activity (Hepatitis B virus [20]): 98.2%
- Activity (Hepatitis B virus [21]): 12.9%
- CC50 at 216 h [22]: 0.23 µM
- Activity (Hepatitis B virus [23]): 38.5%
- Activity [24]: Non-Toxic
- Cp [25]: < 1.01 ng/mL
- Activity [26]: Non-Toxic
